# From paper PMC4450297, “Screening Active Compounds from Garcinia Species Native to China Reveals Novel Compounds Targeting the STAT/JAK Signaling Pathway” (BioMed Research International, 2015)
# Legend:
# Assay in all cases: Cell panel screen (CellTiter-Glo)
# Format in all cases: cell-based, human
# [1] = system: A498; details: A498 (listed under Lung), 20 micromolar, 72 hrs
# Method in brief: (§1)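 ATCC lines in supplier media with 10% FBS, seeded and cultured overnight at 37° C., then exposed to compound at 20 μM final for 72 h. CellTiter-Glo luminescence; % growth inhibition relative to DMSO-treated controls after subtracting cell-free background.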
# [2] = system: A704; details: A704 (Kidney), 20 micromolar, 72 hrs
# Method in brief: as §1
# [3] = system: BT-474; details: BT-474 (Breast), 20 micromolar, 72 hrs
# Method in brief: as §1
# [4] = system: BT-549; details: BT-549 (Breast), 20 micromolar, 72 hrs
# Method in brief: as §1
# [5] = system: Bel-7402; details: Bel-7402 (Liver), 20 micromolar, 72 hrs
# Method in brief: as §1
# [6] = system: C3A; details: C3A (Liver), 20 micromolar, 72 hrs
# Method in brief: as §1
# [7] = system: C8166; details: C8166 (Leukemia), 20 micromolar, 72 hrs
# Method in brief: as §1
# [8] = system: CCF-STTG1; details: CCF-STTG1 (Brain), 20 micromolar, 72 hrs
# Method in brief: as §1
# [9] = system: CW-2; details: CW-2 (Colon), 20 micromolar, 72 hrs
# Method in brief: as §1
# [10] = system: ChaGo-K-1; details: ChaGo-K-1 (Lung), 20 micromolar, 72 hrs
# Method in brief: as §1
# [11] = system: Colo 205; details: Colo 205, 20 micromolar, 72 hrs
# Method in brief: as §1
# [12] = system: HCC1395; details: HCC1395 (Breast), 20 micromolar, 72 hrs
# Method in brief: as §1
# [13] = system: HCC1569; details: HCC1569 (Breast), 20 micromolar, 72 hrs
# Method in brief: as §1
# [14] = system: HCC1599; details: HCC1599 (Breast), 20 micromolar, 72 hrs
# Method in brief: as §1
# [15] = system: HCC1937; details: HCC1937 (Breast), 20 micromolar, 72 hrs
# Method in brief: as §1
# [16] = system: HEC-1-A; details: HEC-1-A (Uterus), 20 micromolar, 72 hrs
# Method in brief: as §1
# [17] = system: HGC-27; details: HGC-27 (Stomach), 20 micromolar, 72 hrs
# Method in brief: as §1
# [18] = system: HPAF-II; details: HPAF-II (Pancreas), 20 micromolar, 72 hrs
# Method in brief: as §1
# [19] = system: HT-1197; details: HT-1197 (Urinary bladder), 20 micromolar, 72 hrs
# Method in brief: as §1
# [20] = system: J82; details: J82 (Urinary bladder), 20 micromolar, 72 hrs
# Method in brief: as §1
# [21] = system: M059J; details: M059J (Brain), 20 micromolar, 72 hrs
# Method in brief: as §1
# [22] = system: MSTO-211-H; details: MSTO-211-H (Lung), 20 micromolar, 72 hrs
# Method in brief: as §1
# [23] = system: NCI-H1623; details: NCI-H1623 (Lung), 20 micromolar, 72 hrs
# Method in brief: as §1
# [24] = system: NCI-H1694; details: NCI-H1694 (Lung), 20 micromolar, 72 hrs
# Method in brief: as §1
# [25] = system: NCI-H1770; details: NCI-H1770 (Lung), 20 micromolar, 72 hrs
# Method in brief: as §1
# [26] = system: NCI-H2347; details: NCI-H2347 (Lung), 20 micromolar, 72 hrs
# Method in brief: as §1
# [27] = system: NCI-H2405; details: NCI-H2405 (Lung), 20 micromolar, 72 hrs
# Method in brief: as §1
# [28] = system: NCI-H28; details: NCI-H28 (Lung), 20 micromolar, 72 hrs
# Method in brief: as §1
# [29] = system: NCI-H524; details: NCI-H524 (Lung), 20 micromolar, 72 hrs
# Method in brief: as §1
# [30] = system: Panc 03.27; details: Panc 03.27 (Pancreas), 20 micromolar, 72 hrs
# Method in brief: as §1
# [31] = system: RL95; details: RL95 (Uterus), 20 micromolar, 72 hrs
# Method in brief: as §1
# [32] = system: SW13; details: SW13 (Adrenal gland), 20 micromolar, 72 hrs
# Method in brief: as §1
# [33] = system: T47D; details: T47D (Breast), 20 micromolar, 72 hrs
# Method in brief: as §1
# [34] = system: T98G; details: T98G (Brain), 20 micromolar, 72 hrs
# Method in brief: as §1
# [35] = system: TCCSUP; details: TCCSUP (Urinary bladder), 20 micromolar, 72 hrs
# Method in brief: as §1
# [36] = system: ZR-75-30; details: ZR-75-30 (Breast), 20 micromolar, 72 hrs
# Method in brief: as §1
compound,measurement,setting,value
CC1(C)C=Cc2c(cc(O)c3c(=O)c4ccc(O)c(O)c4oc23)O1 [gl-18],Percent Inhibition,[1],74%
same,Percent Inhibition,[2],66%
same,Percent Inhibition,[3],92%
same,Percent Inhibition,[4],86%
same,Percent Inhibition,[5],78%
same,Percent Inhibition,[6],81%
same,Percent Inhibition,[7],92%
same,Percent Inhibition,[8],81%
same,Percent Inhibition,[9],95%
same,Percent Inhibition,[10],91%
same,Percent Inhibition,[11],96%
same,Percent Inhibition,[12],94%
same,Percent Inhibition,[13],81%
same,Percent Inhibition,[14],92%
same,Percent Inhibition,[15],85%
same,Percent Inhibition,[16],81%
same,Percent Inhibition,[17],92%
same,Percent Inhibition,[18],82%
same,Percent Inhibition,[19],90%
same,Percent Inhibition,[20],88%
same,Percent Inhibition,[21],91%
same,Percent Inhibition,[22],85%
same,Percent Inhibition,[23],77%
same,Percent Inhibition,[24],98%
same,Percent Inhibition,[25],89%
same,Percent Inhibition,[26],84%
same,Percent Inhibition,[27],66%
same,Percent Inhibition,[28],77%
same,Percent Inhibition,[29],96%
same,Percent Inhibition,[30],96%
same,Percent Inhibition,[31],94%
same,Percent Inhibition,[32],96%
same,Percent Inhibition,[33],83%
same,Percent Inhibition,[34],91%
same,Percent Inhibition,[35],85%
same,Percent Inhibition,[36],95%
O=c1c2cc(O)ccc2oc2cccc(O)c12 [Gof3],Percent Inhibition,[1],39%
same,Percent Inhibition,[2],23%
same,Percent Inhibition,[3],7%
same,Percent Inhibition,[4],16%
same,Percent Inhibition,[5],45%
same,Percent Inhibition,[6],7%
same,Percent Inhibition,[7],29%
same,Percent Inhibition,[8],31%
same,Percent Inhibition,[9],39%
same,Percent Inhibition,[10],12%
same,Percent Inhibition,[11],22%
same,Percent Inhibition,[12],35%
same,Percent Inhibition,[13],29%
same,Percent Inhibition,[14],36%
same,Percent Inhibition,[15],8%
same,Percent Inhibition,[16],19%
same,Percent Inhibition,[17],34%
same,Percent Inhibition,[18],15%
same,Percent Inhibition,[19],28%
same,Percent Inhibition,[20],20%
same,Percent Inhibition,[21],53%
same,Percent Inhibition,[22],36%
same,Percent Inhibition,[23],-7%
same,Percent Inhibition,[24],29%
same,Percent Inhibition,[25],17%
same,Percent Inhibition,[26],20%
same,Percent Inhibition,[27],-13%
same,Percent Inhibition,[28],27%
same,Percent Inhibition,[29],18%
same,Percent Inhibition,[30],7%
same,Percent Inhibition,[31],42%
same,Percent Inhibition,[32],33%
same,Percent Inhibition,[33],10%
same,Percent Inhibition,[34],27%
same,Percent Inhibition,[35],32%
same,Percent Inhibition,[36],41%
Bannaxanthone E [bn-3],Percent Inhibition,[1],96%
same,Percent Inhibition,[2],98%
same,Percent Inhibition,[3],90%
same,Percent Inhibition,[4],97%
same,Percent Inhibition,[5],98%
same,Percent Inhibition,[6],78%
same,Percent Inhibition,[7],98%
same,Percent Inhibition,[8],93%
same,Percent Inhibition,[9],99%
same,Percent Inhibition,[10],97%
same,Percent Inhibition,[11],99%
same,Percent Inhibition,[12],98%
same,Percent Inhibition,[13],97%
same,Percent Inhibition,[14],98%
same,Percent Inhibition,[15],98%
same,Percent Inhibition,[16],88%
same,Percent Inhibition,[17],98%
same,Percent Inhibition,[18],92%
same,Percent Inhibition,[19],98%
same,Percent Inhibition,[20],98%
same,Percent Inhibition,[21],97%
same,Percent Inhibition,[22],98%
same,Percent Inhibition,[23],95%
same,Percent Inhibition,[24],99%
same,Percent Inhibition,[25],98%
same,Percent Inhibition,[26],89%
same,Percent Inhibition,[27],96%
same,Percent Inhibition,[28],95%
same,Percent Inhibition,[29],99%
same,Percent Inhibition,[30],92%
same,Percent Inhibition,[31],98%
same,Percent Inhibition,[32],98%
same,Percent Inhibition,[33],96%
same,Percent Inhibition,[34],99%
same,Percent Inhibition,[35],96%
same,Percent Inhibition,[36],99%
